In the supplement of paper PMC10307832:

Key:
Assay in all cases: relative viability (nuclei count vs DMSO), 5 days (fraction); higher = more cells survive
GSK-J4 + OSI-027 = compound: CCOC(=O)CCNc1cc(N2CCc3ccccc3CC2)nc(-c2ccccn2)n1 [GSK-J4] + COc1cccc2cc(-c3nc([C@H]4CC[C@H](C(=O)O)CC4)n4ncnc(N)c34)[nH]c12 [OSI-027] (partner 0.5 µM)
Outline: (§1)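 Medians of duplicate plates are given as relative viability. That measure is the nuclei count in treated wells divided by the count in vehicle wells. Counts were taken on 4× images of lung cancer cell lines in 1536-well plates, 5 days after pin-tool dosing the day after seeding with one drug alone or a fixed anchor-drug dose plus five library-drug doses (not always all listed) in √10 steps.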

AZ3146 + Luminespib = compound: CN1CCC(CC1)OC2=CC(=C(C=C2)NC3=NC=C4C(=N3)N(C(=O)N4C)C5CCCC5)OC [AZ3146] + CCNC(=O)c1noc(-c2cc(C(C)C)c(O)cc2O)c1-c1ccc(CN2CCOCC2)cc1 [Luminespib] (partner 0.01 µM)
Outline: as §1

GSK-J4 + Linsitinib = compound: CCOC(=O)CCNc1cc(N2CCc3ccccc3CC2)nc(-c2ccccn2)n1 [GSK-J4] + C[C@]1(O)C[C@@H](c2nc(-c3ccc4ccc(-c5ccccc5)nc4c3)c3c(N)nccn32)C1 [Linsitinib] (partner 1 µM)
Outline: as §1

GSK-J4 + Phenformin = compound: CCOC(=O)CCNc1cc(N2CCc3ccccc3CC2)nc(-c2ccccn2)n1 [GSK-J4] + N=C(N)NC(=N)NCCc1ccccc1 [Phenformin] (partner 250 µM)
Outline: as §1

Cell Line	relative viability (GSK-J4 + OSI-027; first compound 0.5 µM)	relative viability (GSK-J4 + OSI-027; first compound 1.581 µM)	relative viability (GSK-J4 + OSI-027; first compound 5 µM)	relative viability (GSK-J4 + OSI-027; first compound 15.81 µM)	relative viability (GSK-J4 + OSI-027; first compound 50 µM)	relative viability (AZ3146 + Luminespib; first compound 0.08 µM)	relative viability (AZ3146 + Luminespib; first compound 0.253 µM)	relative viability (AZ3146 + Luminespib; first compound 0.8 µM)	relative viability (AZ3146 + Luminespib; first compound 2.53 µM)	relative viability (AZ3146 + Luminespib; first compound 8 µM)	relative viability (GSK-J4 + Linsitinib; first compound 0.5 µM)	relative viability (GSK-J4 + Linsitinib; first compound 1.581 µM)	relative viability (GSK-J4 + Linsitinib; first compound 5 µM)	relative viability (GSK-J4 + Linsitinib; first compound 15.81 µM)	relative viability (GSK-J4 + Linsitinib; first compound 50 µM)	relative viability (GSK-J4 + Phenformin; first compound 0.5 µM)	relative viability (GSK-J4 + Phenformin; first compound 1.581 µM)	relative viability (GSK-J4 + Phenformin; first compound 5 µM)	relative viability (GSK-J4 + Phenformin; first compound 15.81 µM)	relative viability (GSK-J4 + Phenformin; first compound 50 µM)
NCI-H661	0.694	0.645	0.559	0.542	0.435	0.928	0.968	0.96	0.896	0.688	0.549	0.565	0.608	0.425	0.36	0.269	0.312	0.238	0.258	0.266
NCI-H1944	0.466	0.399	0.309	0.296	0.355	0.617	0.786	0.777	0.906	1.06	1.2	0.977	1.22	1.22	1.2	0.2	0.193	0.124	0.155	0.174
NCI-H358	0.765	0.68	0.795	0.504	0.617	0.407	0.383	0.51	0.508	0.394	0.682	0.513	0.746	0.717	0.857	0.443	0.264	0.349	0.266	0.255
NCI-H2126	0.706	0.7	0.949	0.576	0.45	0.882	0.942	0.919	0.919	0.767	0.735	0.705	0.732	0.677	0.725	0.537	0.505	0.55	0.485	0.456
PC-14	0.844	0.759	0.777	0.778	0.694	0.162	0.169	–	0.252	0.159	0.909	0.918	0.86	0.915	1.05	0.624	0.555	0.432	0.537	0.53
NCI-H520	0.33	0.22	0.278	0.248	0.257	0.243	0.214	0.223	0.255	0.248	0.829	0.939	1.15	0.891	0.81	0.582	0.478	0.46	0.303	0.445
LXF-289	0.783	0.583	0.53	0.711	0.52	0.643	0.691	0.705	0.772	0.787	0.973	0.912	0.956	0.915	0.893	0.506	0.445	0.408	0.53	0.515
NCI-H441	0.673	0.472	0.567	0.536	0.433	0.274	0.465	0.353	0.38	0.473	0.664	0.325	0.602	0.532	0.511	0.819	0.852	0.641	0.805	0.809
NCI-H596	0.72	0.767	0.857	0.464	0.597	1.01	0.995	0.831	1.03	0.837	1	1.08	1.07	0.938	1.02	0.821	0.67	0.626	0.633	0.732
NCI-H727	0.745	0.383	0.842	0.55	0.322	0.465	0.796	0.458	0.34	0.302	0.245	–	0.568	0.267	0.222	0.566	0.76	0.791	0.589	0.441
NCI-H838	0.452	0.353	–	0.362	0.385	0.31	0.284	0.281	0.273	0.264	0.973	0.982	–	0.999	1	0.798	0.465	–	0.528	0.487
NCI-H1793	0.36	0.215	0.258	0.167	0.2	0.208	0.173	0.202	0.145	0.178	0.973	0.71	0.94	0.594	0.493	0.446	0.29	0.281	0.294	0.228
NCI-H1792	0.671	–	0.778	0.485	0.681	0.345	0.478	0.571	0.435	0.431	0.543	0.296	0.518	0.465	0.635	0.267	0.258	0.185	0.529	0.318
NCI-H1355	0.438	0.316	0.35	0.29	0.278	0.744	0.721	0.724	0.767	0.766	0.714	0.742	0.871	0.809	0.816	0.447	0.39	0.333	0.359	0.36
HARA	0.548	–	–	0.282	0.219	0.895	0.823	0.711	0.816	0.512	0.891	0.608	–	0.797	0.699	0.455	–	–	0.396	0.386
201T	0.668	0.414	0.932	0.691	0.721	0.994	1.03	0.979	1.09	1.04	1.02	1.08	1.1	1.04	1.06	0.444	0.479	0.374	0.384	0.352
